Source: PubChem BioAssay AID1963851 (Molecular Pharmacology Branch, DTP, NCI, 2024)

Test system: 188146-221-R-J1-PDC complex spheroid viability
Assay: Anticancer human tumor 188146-221-R-J1-PDC patient-derived colon adenocarcinoma cell line growth inhibition [POLQ]
Settings: for IC50: curve of first compound; for viability, T/C: stronger effect = lower value; active = viability on the fitted dose curve at most 10% of control; inactive = the rest
In short: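 Patient-derived tumour cells were co-cultured with HUVEC and mesenchymal stem cells as multicellular spheroids at 37 °C. They were treated with POLQ inhibitors (novobiocin, ART-558, RP6685) alone or combined with other agents. Top concentrations were at or near clinical Cmax (otherwise 10 microM; SN-38 at 1 microM), decreasing in half-log steps.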

[1] = second compound 0.0316 µM, first compound 0.0316 µM
[2] = second compound 0.0316 µM, first compound 0.1 µM
[3] = second compound 0.0316 µM, first compound 0.316 µM
[4] = second compound 0.0316 µM, first compound 1 µM
[5] = second compound 0.0316 µM, first compound 3.16 µM
[6] = second compound 0.0316 µM, first compound 10 µM
[7] = second compound 0.1 µM, first compound 0.0316 µM
[8] = second compound 0.1 µM, first compound 0.1 µM
[9] = second compound 0.1 µM, first compound 0.316 µM
[10] = second compound 0.1 µM, first compound 1 µM
[11] = second compound 0.1 µM, first compound 3.16 µM
[12] = second compound 0.1 µM, first compound 10 µM
[13] = second compound 0.316 µM, first compound 0.0316 µM
[14] = second compound 0.316 µM, first compound 0.1 µM
[15] = second compound 0.316 µM, first compound 0.316 µM
[16] = second compound 0.316 µM, first compound 1 µM
[17] = second compound 0.316 µM, first compound 3.16 µM
[18] = second compound 0.316 µM, first compound 10 µM
[19] = second compound 1 µM, first compound 0.0316 µM
[20] = second compound 1 µM, first compound 0.1 µM
[21] = second compound 1 µM, first compound 0.316 µM
[22] = second compound 1 µM, first compound 1 µM
[23] = second compound 1 µM, first compound 3.16 µM
[24] = second compound 1 µM, first compound 10 µM
[25] = second compound 3.16 µM, first compound 0.0316 µM
[26] = second compound 3.16 µM, first compound 0.1 µM
[27] = second compound 3.16 µM, first compound 0.316 µM
[28] = second compound 3.16 µM, first compound 1 µM
[29] = second compound 3.16 µM, first compound 3.16 µM
[30] = second compound 3.16 µM, first compound 10 µM
[31] = second compound 10 µM, first compound 0.0316 µM
[32] = second compound 10 µM, first compound 0.1 µM
[33] = second compound 10 µM, first compound 0.316 µM
[34] = second compound 10 µM, first compound 1 µM
[35] = second compound 10 µM, first compound 3.16 µM
[36] = second compound 10 µM, first compound 10 µM
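Also: spheroids exposed to compounds for seven days.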
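For viability, T/C in this document: 100% = DMSO vehicle control viability.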

CC1COCCN1c1cc(C2(O)CC3CCC(C2)O3)c2cnn(-c3ccn[nH]3)c2n1 (stereo unspecified) + COC1C(OC(N)=O)C(O)C(Oc2ccc3c(O)c(NC(=O)c4ccc(O)c(CC=C(C)C)c4)c(=O)oc3c2C)OC1(C)C
0.299 µM: IC50 (second compound 3.16 µM)
0.425 µM: IC50 (second compound 0.316 µM) | IC50 (second compound 1 µM)
0.428 µM: IC50 (second compound 0.1 µM)
active: viability, T/C [6] 9.03% | viability, T/C [12] 8.19% | viability, T/C [18] 9.09% | viability, T/C [24] 9.21% | viability, T/C [30] 8.05% | viability, T/C [36] 7.81%
0.195 µM: IC50 (second compound 10 µM)
inactive: viability, T/C [1] 93.4% | viability, T/C [2] 68.8% | viability, T/C [3] 53.1% | viability, T/C [4] 25.5% | viability, T/C [5] 18% | viability, T/C [7] 94.5% | viability, T/C [8] 78.5% | viability, T/C [9] 56.9% | viability, T/C [10] 30.9% | viability, T/C [11] 21.2% | viability, T/C [13] 94.7% | viability, T/C [14] 74.1% | viability, T/C [15] 57% | viability, T/C [16] 35.4% | viability, T/C [17] 17% | viability, T/C [19] 93.8% | viability, T/C [20] 79.3% | viability, T/C [21] 57.2% | viability, T/C [22] 30.6% | viability, T/C [23] 17.5% | viability, T/C [25] 82.1% | viability, T/C [26] 67.2% | viability, T/C [27] 51.3% | viability, T/C [28] 26.3% | viability, T/C [29] 14.9% | viability, T/C [31] 90.5% | viability, T/C [32] 62.4% | viability, T/C [33] 41.8% | viability, T/C [34] 22.8% | viability, T/C [35] 19%
0.295 µM: IC50 (second compound 0.0316 µM)

C#Cc1c(F)ccc2cc(O)cc(-c3ncc4c(N5CC6CCC(C5)N6)nc(OCC56CCCN5CC(F)C6)nc4c3F)c12 (stereo unspecified) + Cc1cccc(N(C)C(=O)C2C(O)CCN2c2nc(C)cc(C(F)(F)F)c2C#N)c1
inactive: viability, T/C [1] 104% | viability, T/C [2] 105% | viability, T/C [3] 104% | viability, T/C [4] 97.9% | viability, T/C [5] 88.6% | viability, T/C [6] 90.6% | viability, T/C [7] 101% | viability, T/C [8] 112% | viability, T/C [9] 101% | viability, T/C [10] 95.5% | viability, T/C [11] 96% | viability, T/C [12] 92.6% | viability, T/C [13] 108% | viability, T/C [14] 106% | viability, T/C [15] 96.9% | viability, T/C [16] 85.3% | viability, T/C [17] 93.2% | viability, T/C [18] 84.1% | viability, T/C [19] 111% | viability, T/C [20] 101% | viability, T/C [21] 94.9% | viability, T/C [22] 93.4% | viability, T/C [23] 89.8% | viability, T/C [24] 85.5% | viability, T/C [25] 99.7% | viability, T/C [26] 98.2% | viability, T/C [27] 96.8% | viability, T/C [28] 74.9% | viability, T/C [29] 95.8% | viability, T/C [30] 98.2% | viability, T/C [31] 107% | viability, T/C [32] 75% | viability, T/C [33] 99.8% | viability, T/C [34] 90% | viability, T/C [35] 88.6% | viability, T/C [36] 78.3%
> 10 µM: IC50 (second compound 0.0316 µM) | IC50 (second compound 0.1 µM) | IC50 (second compound 0.316 µM) | IC50 (second compound 1 µM) | IC50 (second compound 3.16 µM) | IC50 (second compound 10 µM)

COc1cc2cc(C(=O)CCC(=O)O)sc2cc1OC + Cc1cccc(N(C)C(=O)C2C(O)CCN2c2nc(C)cc(C(F)(F)F)c2C#N)c1
inactive: viability, T/C [1] 95.5% | viability, T/C [2] 109% | viability, T/C [3] 94.2% | viability, T/C [4] 91.3% | viability, T/C [5] 103% | viability, T/C [6] 93.5% | viability, T/C [7] 102% | viability, T/C [8] 100% | viability, T/C [9] 109% | viability, T/C [10] 97.8% | viability, T/C [11] 97.5% | viability, T/C [12] 105% | viability, T/C [13] 95.9% | viability, T/C [14] 98.7% | viability, T/C [15] 93.2% | viability, T/C [16] 94% | viability, T/C [17] 96.1% | viability, T/C [18] 99% | viability, T/C [19] 94.1% | viability, T/C [20] 80.5% | viability, T/C [21] 93.6% | viability, T/C [22] 96.6% | viability, T/C [23] 112% | viability, T/C [24] 92.7% | viability, T/C [25] 100% | viability, T/C [26] 107% | viability, T/C [27] 84.8% | viability, T/C [28] 88.6% | viability, T/C [29] 92.5% | viability, T/C [30] 86.9% | viability, T/C [31] 101% | viability, T/C [32] 96.2% | viability, T/C [33] 92.3% | viability, T/C [34] 88.7% | viability, T/C [35] 88.8% | viability, T/C [36] 103%
> 10 µM: IC50 (second compound 0.0316 µM) | IC50 (second compound 0.1 µM) | IC50 (second compound 0.316 µM) | IC50 (second compound 1 µM) | IC50 (second compound 3.16 µM) | IC50 (second compound 10 µM)
